# Where “and” joins values, the source holds several entries; their conditions need not be identical. Equal entries are not always repeated.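 Protocol summary: plate cells (96-well), add compound at 5 concentrations, incubate 48 h, interpolate endpoints linearly. Abbreviation: GI50, concentration required for 50% inhibition of growth. At the TGI there is no net growth.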
# Key:
# Assay in all cases: DTP human tumour cell line panel, 48 h
# OVCAR-4 ovarian = system: OVCAR-4 ovarian
# A498 renal = system: A498 renal
# SNB-75 CNS = system: SNB-75 CNS
# EKVX NSCLC = system: EKVX NSCLC
# NCI-H460 lung = system: NCI-H460 lung
# NCI-H226 lung = system: NCI-H226 lung
# SW-620 colon = system: SW-620 colon
# HOP-62 NSCLC = system: HOP-62 NSCLC
# HCT-15 colon = system: HCT-15 colon
# COLO 205 colon = system: COLO 205 colon
Structure (SMILES),GI50 (OVCAR-4 ovarian),TGI (OVCAR-4 ovarian),GI50 (A498 renal) [µM],TGI (A498 renal),GI50 (SNB-75 CNS) [µM],TGI (SNB-75 CNS),GI50 (EKVX NSCLC) [µM],TGI (EKVX NSCLC),GI50 (NCI-H460 lung),TGI (NCI-H460 lung),GI50 (NCI-H226 lung),TGI (NCI-H226 lung),GI50 (SW-620 colon),TGI (SW-620 colon) [µM],GI50 (HOP-62 NSCLC) [µM],TGI (HOP-62 NSCLC),GI50 (HCT-15 colon),TGI (HCT-15 colon),GI50 (COLO 205 colon),TGI (COLO 205 colon)
COc1ccc(Cc2nc3cc(OC)c(OC)cc3c(=O)[nH]2)cc1,25.4 µM,> 100 µM,18.6,66.9 µM,9.79,40.1 µM,17.3,> 92.5 µM,15.3 µM,> 100 µM,9.2 µM,> 100 µM,3.32 µM,> 63.5,8.69,> 81.5 µM,3.57 µM,> 100 µM,2.33 µM,6.93 µM
Nc1nc(=S)[nH]c(C(=O)Nc2nccs2)c1-c1ccccc1,,> 100 µM,,> 100 µM,,> 100 µM,,> 100 µM,,> 100 µM,,> 100 µM,,> 100,,> 100 µM,,> 100 µM,,> 100 µM
CCSc1ncc(Br)c(Sc2nc(N)nc3nc[nH]c23)n1,2.29 µM,30.5 µM,10.1,> 100 µM,1.57,14 µM,3.4,> 100 µM,3.08 µM,23.4 µM,2.59 µM,> 100 µM,17.7 µM,> 100,1.64,24.4 µM,4.07 µM,> 100 µM,15.1 µM,52.6 µM
Cc1ccc(C2=C(Cl)C(=O)C(c3ccc(C)cc3)=C(Cl)C2=O)cc1,,> 100 µM,,> 100 µM,,> 100 µM,,> 100 µM,,> 100 µM,,> 100 µM,,> 100,,> 100 µM,,> 100 µM,,> 100 µM
C=CCN=C(N/N=C/c1ccc([N+](=O)[O-])o1)NS(=O)(=O)c1cc(C(=O)Nc2ccccc2)c(Cl)cc1SCC(N)=O,53 µM,> 100 µM,77.8,> 100 µM,> 100,> 100 µM,22.9,> 100 µM,69.4 µM,> 100 µM,30.8 µM,> 100 µM,5.99 µM,37.4,53.9,> 100 µM,> 100 µM,> 100 µM,6.55 µM,> 100 µM
COc1ccc(C(=O)O/N=C2/CCCCC2CN(C)C)cc1 (stereo not given),,> 100 µM,,> 100 µM,,> 100 µM,,> 100 µM,,> 100 µM,,> 100 µM,,> 100,,> 100 µM,,> 100 µM,,> 100 µM
N#CC(NC(=O)CCl)=C(Cl)Cl,1.76 µM,3.6 µM,1.86,3.88 µM,1.63,4.27 µM,1.85,3.81 µM,2.69 µM,7.47 µM,2.59 µM,6.56 µM,1.44 µM,3.49,2.15,4.83 µM,0.68 µM,2.34 µM,1.44 µM,2.99 µM
C=C(Cn1c2ccccc2c(=O)c2ccccc21)c1ccc(C(=O)Nc2ccccc2N)cc1,0.0786 µM,6.06 µM,,> 27.2 µM,1.08,> 28 µM,> 21.5,> 100 µM,4.72 µM,> 100 µM,> 24.8 µM,> 100 µM,6.56 µM,> 100,> 27.3,> 100 µM,3.48 µM,> 100 µM,16.2 µM,> 100 µM
CN(C)c1ccc(N=C2C=CC(=C(C#N)C#N)c3ccccc32)cc1,,6.13 µM,,1.37 µM,,5.71 µM,,19.1 µM,,7.08 µM,,0.741 µM,,3.65,,15.3 µM,,4.72 µM,,0.199 µM
Nc1nc(=S)c2[nH]cnc2[nH]1,0.573 µM and 4.99 µM,> 100 µM and 97.4 µM and 109 µM,,> 23.8 µM and 93.7 µM and 12.6 µM,,> 86 µM and 45.8 µM and > 250 µM,,> 100 µM and 143 µM and > 250 µM,0.332 µM and 0.989 µM,7 µM and 16.8 µM and 19.8 µM,0.72 µM and 6.95 µM,> 59.5 µM and 106 µM and 102 µM,0.564 µM and 3.6 µM and 1.18 µM,,0.472,> 31.8 µM and 29.6 µM and 94.9 µM,0.515 µM and 2.51 µM and 1.7 µM,> 100 µM and 51.6 µM and 38.9 µM,0.998 µM and 2.35 µM and 2.52 µM,5.68 µM [middle of 4 runs]
CNCc1ccc(-c2[nH]c3cc(F)cc4c3c2CCNC4=O)cc1,13.5 µM,47.8 µM,21.6,53.8 µM,9.49,27.3 µM,26.1,> 83.1 µM,14.9 µM,42.3 µM,15.6 µM,43.4 µM,16.1 µM,60.4,14.9,43.4 µM,35.8 µM,> 100 µM,11.7 µM,26.4 µM
COc1cc(/C=C2\C(=O)N(C)c3ccccc32)cc(OC)c1OC,18.6 µM,> 100 µM,33,> 100 µM,11.5,70 µM,24.3,> 100 µM,10.8 µM,64.1 µM,19.1 µM,52.4 µM,13.4 µM,> 100,20.2,54 µM,10.3 µM,85.5 µM,17.7 µM,> 100 µM
CC1=C2[C@@H](CC1)[C@]1(C)O[C@@](C3CC3)(C[C@H]1OC(=O)CO)[C@H]2OC(=O)/C=C/c1ccccc1,14.5 µM,29.2 µM,0.0998,0.605 µM,12.6,30.5 µM,11.5,25.1 µM,16.6 µM,33.1 µM,16.2 µM,36.5 µM,19.1 µM,36.7,15.4,30.2 µM,13.6 µM,29.3 µM,17.9 µM,35.7 µM
CNCc1cccc2c1OCCOCCOCCC(C)S(=O)(=O)c1ccc(cc1)-c1cnc(N)c(n1)C(=O)N2 (stereo not given),1.32 µM,4.32 µM,0.139,2.14 µM,0.119,1.59 µM,4.46,18.6 µM,1.12 µM,2.73 µM,1.98 µM,5.46 µM,2.13 µM,10.7,1.14,4.82 µM,1.11 µM,6.2 µM,0.564 µM,5.25 µM

# Source: PubChem BioAssay (NCI)
